Measurements taken from PubChem BioAssay (NCI).
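Five compound concentrations were applied to cells in 96-well plates for 48 hours; endpoints were derived by simple linear interpolation of the resulting dose-response curve. GI50 is the concentration that inhibits growth by half. TGI: concentration producing complete growth inhibition.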

Columns and labels:
Assay in all cases: DTP human tumour cell line panel, 48 h
ACHN renal = tested on: ACHN renal
DMS 114 small cell lung = tested on: DMS 114 small cell lung
LXFL 529 NSCLC = tested on: LXFL 529 NSCLC
M14 melanoma = tested on: M14 melanoma
M19-MEL melanoma = tested on: M19-MEL melanoma
NCI-H226 lung = tested on: NCI-H226 lung
RXF 393 renal = tested on: RXF 393 renal
SK-OV-3 ovarian = tested on: SK-OV-3 ovarian
SNB-78 CNS = tested on: SNB-78 CNS
SR leukemia = tested on: SR leukemia
TK-10 renal = tested on: TK-10 renal
NCI/ADR-RES ovarian = tested on: NCI/ADR-RES ovarian

CC(C)(C)[Si](OC1CC(n2cnc3c(N)ncnc32)OC1CO)(c1ccccc1)c1ccccc1 (configuration not stated)
TGI (ACHN renal): 31.8 µM | TGI (DMS 114 small cell lung): 54.2 µM | TGI (LXFL 529 NSCLC): > 100 µM | TGI (M14 melanoma): > 100 µM | TGI (M19-MEL melanoma): 42.9 µM | TGI (NCI-H226 lung): 27.1 µM | TGI (RXF 393 renal): 29.5 µM | TGI (SK-OV-3 ovarian): 32.7 µM | TGI (SNB-78 CNS): > 100 µM | TGI (SR leukemia): 43.8 µM | TGI (TK-10 renal): 53.4 µM

O=C1C(Cl)N(c2ccc(Cl)cc2)C1c1c[nH]c2ccccc12 (configuration not stated)
TGI (DMS 114 small cell lung): 45.2 µM | TGI (LXFL 529 NSCLC): 30.2 µM | TGI (M14 melanoma): 42.3 µM | TGI (M19-MEL melanoma): 98.4 µM | TGI (RXF 393 renal): 42.1 µM | TGI (SR leukemia): 39.4 µM | TGI (TK-10 renal): 34.8 µM

COc1ccc(N2C(=O)/C(=C(\C)c3cc4ccccc4oc3=O)N=C2c2cc([N+](=O)[O-])ccc2Cl)cc1
TGI (ACHN renal): > 100 µM | TGI (DMS 114 small cell lung): > 100 µM | TGI (LXFL 529 NSCLC): > 100 µM | TGI (M14 melanoma): 86.3 µM | TGI (M19-MEL melanoma): > 100 µM | TGI (NCI-H226 lung): > 100 µM | TGI (SK-OV-3 ovarian): > 100 µM | TGI (SNB-78 CNS): > 100 µM | TGI (SR leukemia): > 100 µM

O=C(O)c1ccc(Nc2c3ccccc3nc3ccccc23)cc1
TGI (DMS 114 small cell lung): > 100 µM | TGI (M19-MEL melanoma): > 100 µM | TGI (NCI-H226 lung): > 100 µM | TGI (NCI/ADR-RES ovarian): > 100 µM | TGI (RXF 393 renal): > 100 µM | TGI (SK-OV-3 ovarian): > 100 µM | TGI (SNB-78 CNS): > 100 µM

CN(C)CCCNC(=O)c1cc2[nH]c3c(cnc4ccc([N+](=O)[O-])cc43)c(=O)c2n1C
GI50 (ACHN renal): 14.5 µM | TGI (ACHN renal): 27.9 µM | GI50 (M14 melanoma): 17.3 µM | TGI (M14 melanoma): 31.1 µM | GI50 (NCI-H226 lung): 49.8 µM | TGI (NCI-H226 lung): > 100 µM | GI50 (NCI/ADR-RES ovarian): 22 µM | TGI (NCI/ADR-RES ovarian): 49.6 µM | GI50 (RXF 393 renal): 4.88 µM | TGI (RXF 393 renal): 18.7 µM | GI50 (SK-OV-3 ovarian): 17.3 µM | TGI (SK-OV-3 ovarian): 37.9 µM | GI50 (SR leukemia): 14.5 µM | TGI (SR leukemia): 43.3 µM | GI50 (TK-10 renal): 14.3 µM | TGI (TK-10 renal): 28.2 µM

Cc1cc(C)n(C(=C(C(Cl)=C(Cl)Cl)[N+](=O)[O-])n2nc(C)cc2C)n1
TGI (ACHN renal): 8.8 µM | TGI (M14 melanoma): 15.5 µM | TGI (NCI-H226 lung): 26 µM | TGI (NCI/ADR-RES ovarian): 20.5 µM | TGI (RXF 393 renal): 16 µM | TGI (SK-OV-3 ovarian): 8.69 µM | TGI (TK-10 renal): 9.36 µM
